Experimental data: patent publication US10722516B2, “Use of landiolol hydrochloride in the long-term treatment of tachyarrhythmias” (AOP Orphan Pharmaceuticals AG, priority 2013, dated 2020)
Entries after “also recorded” stand apart in the source; their conditions may differ. Where a name gives a salt, the structure may show the parent alone.

Experiments:
healthy volunteers [1] = test: 24 h long-term infusion study, AOP LDLL600 against esmolol: heart rate; type: in vivo, human; conditions: for heart rate: Table 1
Procedure: (§1) A single centre prospective, randomized, double blind, crossover, pharmacokinetic, safety and tolerability study to compare long-term infusion administration of AOP LDLL600 against esmolol in healthy volunteers was performed.
(§2) Landiolol hydrochloride lyophilized (LDLL600) comprises 600 mg landiolol hydrochloride, 600 mg mannitol, pH 6.5. The primary packing of LDLL600 is 50 ml vial, the reconstitution volume is 50 ml and the final product concentration is 12 mg/mL landiolol HCl.
(§3) 12 subjects were administered AOP LDLL600 or Esmolol (Brevibloc, 2500 mg/250 ml) in 1:1 ratio in double-blind, randomized, cross-over setting. PK, systemic cardiovascular and local tolerability and safety of the 24 h-long term infusions of three dose levels of both IMPs during each treatment period were assessed.
(§4) Landiolol was infused over 24 h in a dose of 10 μg/KG/min (2 hrs), followed by 20 μg/KG/min (2 hrs), followed by 40 μg/KG/min for 20 hrs.
(§5) Dosing algorithm was body weight divided by 20, 10 and 5 in ml/h giving 10, 20 and 40 μg/KG/min at a concentration of 12 mg/ml. No severe adverse drug reactions, mild local reactions, 1 severe local reaction (Esmolol High Dose).
(§6) Landiolol was infused over 24 h in a dose of 10, 20 and 40 μg/KG/min, i.e. 10 μg/KG/min landiolol were administered for 2 hrs, followed by 2 hrs administration of 20 μg/KG/min and further followed by 20 hrs administration of 40 μg/KG/min.
Post-infusion follow up measurements were performed immediately after 20 hrs administration study, i.e. 2, 4 min etc. after stop of landiolol administration.

[2] = after discontinuing the drug; cited from earlier work
healthy volunteers [3] = test: 24 h long-term infusion study: local tolerability and safety; type: in vivo, human; conditions: 24 h infusion
Procedure: as §1, §2, §3, §4, §5, §6

[4] = in vivo; cited from earlier work
[5] = LD infusion (landiolol 10, esmolol 50 μg/kg/min), 8 min
[6] = LD infusion (landiolol 10, esmolol 50 μg/kg/min), 12 min
[7] = LD infusion (landiolol 10, esmolol 50 μg/kg/min), 16 min
[8] = LD infusion (landiolol 10, esmolol 50 μg/kg/min), 20 min
[9] = LD infusion (landiolol 10, esmolol 50 μg/kg/min), 30 min
[10] = LD infusion (landiolol 10, esmolol 50 μg/kg/min), 60 min
[11] = LD infusion (landiolol 10, esmolol 50 μg/kg/min), 90 min
[12] = LD infusion (landiolol 10, esmolol 50 μg/kg/min), 2 h
[13] = MD infusion (landiolol 20, esmolol 100 μg/kg/min, after 2 h LD), 2 min
[14] = MD infusion (landiolol 20, esmolol 100 μg/kg/min, after 2 h LD), 3 min
[15] = MD infusion (landiolol 20, esmolol 100 μg/kg/min, after 2 h LD), 4 min
[16] = MD infusion (landiolol 20, esmolol 100 μg/kg/min, after 2 h LD), 6 min
[17] = MD infusion (landiolol 20, esmolol 100 μg/kg/min, after 2 h LD), 8 min
[18] = MD infusion (landiolol 20, esmolol 100 μg/kg/min, after 2 h LD), 16 min
[19] = MD infusion (landiolol 20, esmolol 100 μg/kg/min, after 2 h LD), 20 min
[20] = MD infusion (landiolol 20, esmolol 100 μg/kg/min, after 2 h LD), 30 min
[21] = MD infusion (landiolol 20, esmolol 100 μg/kg/min, after 2 h LD), 60 min
[22] = MD infusion (landiolol 20, esmolol 100 μg/kg/min, after 2 h LD), 90 min
[23] = MD infusion (landiolol 20, esmolol 100 μg/kg/min, after 2 h LD), 2 h

Compound: COC(=O)CCc1ccc(OCC(O)CNC(C)C)cc1 (stereo not shown) [Esmolol, Esmolol hydrochloride]
- heart rate, Mean (SD) (healthy volunteers [1]; LD infusion (landiolol 10, esmolol 50 μg/kg/min), 6 min): 66.0 (4.52) beats per minute
- change of heart rate from predose, Mean (SD) (healthy volunteers [1]; [5]): −2.1 (7.05) beats per minute
- heart rate, Mean (SD) (healthy volunteers [1]; [5]): 65.5 (4.35) beats per minute
- change of heart rate from predose, Mean (SD) (healthy volunteers [1]; [6]): −2.4 (6.77) beats per minute
- heart rate, Mean (SD) (healthy volunteers [1]; [6]): 65.2 (4.74) beats per minute
- change of heart rate from predose, Mean (SD) (healthy volunteers [1]; [7]): −2.3 (7.58) beats per minute
- heart rate, Mean (SD) (healthy volunteers [1]; [7]): 65.4 (5.51) beats per minute
- change of heart rate from predose, Mean (SD) (healthy volunteers [1]; [8]): −2.0 (9.49) beats per minute
- heart rate, Mean (SD) (healthy volunteers [1]; [8]): 65.6 (7.07) beats per minute
- change of heart rate from predose, Mean (SD) (healthy volunteers [1]; [9]): −5.1 (6.29) beats per minute
- heart rate, Mean (SD) (healthy volunteers [1]; [9]): 62.6 (5.05) beats per minute
- change of heart rate from predose, Mean (SD) (healthy volunteers [1]; [10]): −4.1 (8.00) beats per minute
- heart rate, Mean (SD) (healthy volunteers [1]; [10]): 63.6 (4.67) beats per minute
- change of heart rate from predose, Mean (SD) (healthy volunteers [1]; [11]): −3.5 (6.55) beats per minute
- heart rate, Mean (SD) (healthy volunteers [1]; [11]): 64.1 (4.99) beats per minute
- change of heart rate from predose, Mean (SD) (healthy volunteers [1]; [12]): −3.9 (7.12) beats per minute
- heart rate, Mean (SD) (healthy volunteers [1]; [12]): 63.8 (4.89) beats per minute
- change of heart rate from predose, Mean (SD) (healthy volunteers [1]; MD Predose (end of 2 h LD)): −3.9 (7.12) beats per minute
- heart rate, Mean (SD) (healthy volunteers [1]; MD Predose (end of 2 h LD)): 63.8 (4.89) beats per minute
- change of heart rate from predose, Mean (SD) (healthy volunteers [1]; [13]): −4.3 (10.36) beats per minute
- heart rate, Mean (SD) (healthy volunteers [1]; [13]): 63.4 (7.88) beats per minute
- change of heart rate from predose, Mean (SD) (healthy volunteers [1]; [14]): −5.1 (8.40) beats per minute
- heart rate, Mean (SD) (healthy volunteers [1]; [14]): 62.6 (5.50) beats per minute
- change of heart rate from predose, Mean (SD) (healthy volunteers [1]; [15]): −2.7 (8.96) beats per minute
- heart rate, Mean (SD) (healthy volunteers [1]; [15]): 64.9 (9.04) beats per minute
- change of heart rate from predose, Mean (SD) (healthy volunteers [1]; [16]): −3.8 (7.45) beats per minute
- heart rate, Mean (SD) (healthy volunteers [1]; [16]): 63.9 (5.10) beats per minute
- change of heart rate from predose, Mean (SD) (healthy volunteers [1]; [17]): −5.6 (7.54) beats per minute
- heart rate, Mean (SD) (healthy volunteers [1]; [17]): 62.1 (4.46) beats per minute
- heart rate, Mean (SD) (healthy volunteers [1]; MD infusion (landiolol 20, esmolol 100 μg/kg/min, after 2 h LD), 12 min): 61.8 (5.07) beats per minute
- change of heart rate from predose, Mean (SD) (healthy volunteers [1]; [18]): −3.5 (7.14) beats per minute
- heart rate, Mean (SD) (healthy volunteers [1]; [18]): 64.1 (5.02) beats per minute
- change of heart rate from predose, Mean (SD) (healthy volunteers [1]; [19]): −5.0 (7.34) beats per minute
- heart rate, Mean (SD) (healthy volunteers [1]; [19]): 62.6 (4.33) beats per minute
- change of heart rate from predose, Mean (SD) (healthy volunteers [1]; [20]): −5.6 (8.20) beats per minute
- heart rate, Mean (SD) (healthy volunteers [1]; [20]): 62.1 (5.00) beats per minute
- change of heart rate from predose, Mean (SD) (healthy volunteers [1]; [21]): −1.4 (10.41) beats per minute
- heart rate, Mean (SD) (healthy volunteers [1]; [21]): 66.2 (5.04) beats per minute
- change of heart rate from predose, Mean (SD) (healthy volunteers [1]; [22]): −2.2 (8.59) beats per minute
- heart rate, Mean (SD) (healthy volunteers [1]; [22]): 65.4 (6.17) beats per minute
- change of heart rate from predose, Mean (SD) (healthy volunteers [1]; [23]): −3.9 (7.75) beats per minute
- heart rate, Mean (SD) (healthy volunteers [1]; [23]): 63.7 (4.86) beats per minute
- heart rate, Mean (SD) (healthy volunteers [1]; Predose (before first IMP administration)): 67.6 (7.87) beats per minute
- heart rate (healthy volunteers [1]; Control (before administration)): 67 beats per minute
- heart rate (healthy volunteers [1]; high dose (landiolol 40, esmolol 200 μg/kg/min), time 720 min): 67.9 beats per minute
- heart rate (healthy volunteers [1]; high dose (landiolol 40, esmolol 200 μg/kg/min), time 1200 min): 67.9 beats per minute
- heart rate (healthy volunteers [1]; low dose (landiolol 10, esmolol 50 μg/kg/min), time 12 min): 65.2 beats per minute
- heart rate (healthy volunteers [1]; low dose (landiolol 10, esmolol 50 μg/kg/min), time 16 min): 65.4 beats per minute
- heart rate (healthy volunteers [1]; low dose (landiolol 10, esmolol 50 μg/kg/min), time 30 min): 62.6 beats per minute
- heart rate (healthy volunteers [1]; low dose (landiolol 10, esmolol 50 μg/kg/min), time 60 min): 63.6 beats per minute
- heart rate (healthy volunteers [1]; low dose (landiolol 10, esmolol 50 μg/kg/min), time 120 min): 63.8 beats per minute
- heart rate (healthy volunteers [1]; medium dose (landiolol 20, esmolol 100 μg/kg/min), time 240 min): 63.7 beats per minute
- heart rate (healthy volunteers [1]; time after administration 12 min (end at 1440 min)): 74.7 beats per minute
- heart rate (healthy volunteers [1]; time after administration 16 min): 74 beats per minute
- heart rate (healthy volunteers [1]; time after administration 30 min): 76.8 beats per minute
- heart rate (healthy volunteers [1]; time after administration 60 min): 73.1 beats per minute
- heart rate (healthy volunteers [1]; time after administration 120 min): 70.2 beats per minute
- overshoot effect on heart rate (healthy volunteers [1]; after termination of long term administration, hydrochloride): the heart rate and blood pressure raise immediately over control values; also recorded: significant tolerance and overshoot effect
- additive effect of raising the dose (tolerance state) (healthy volunteers [1]; esmolol MD, HD): does not provide any additive effect
- heart rate effect during administration (healthy volunteers [1]; long term administration): relative increase of the heart rate and blood pressure already after 60 minutes of administration
- tolerance effect (healthy volunteers [1]; long term administration): significant tolerance and overshoot effect
- remark on heart rate response after infusion stop (healthy volunteers [1]; remark column of Table 2, FU time points 20 h 6 min to 21 h): overshoot
- remark on heart rate response during infusion (healthy volunteers [1]; remark column of Table 2, time points MD 60 min to HD 20 h (end)): Tolerance state
- time to resolution of hypotension symptoms [2]: ≤ 30 min
- local reactions (percent of subjects) (healthy volunteers [3]; three dose levels): 50.0%
- local reactions (subjects/total) (healthy volunteers [3]; three dose levels): 7/14
- severe local reaction (number) (healthy volunteers [3]; Esmolol High Dose (200 μg/kg/min)): 1
- alpha-distribution half-life [4]: approximately 2 minutes
- total body clearance relative to cardiac output [4]: ~3 times
- total body clearance relative to hepatic blood flow [4]: ~14 times
